Data on 42 molecules can be found in patent US12649751B2 (Arcus Biosciences, Inc., priority 2022, dated 2026).

Like-named read-outs stand apart in the source and are kept apart here.

In test [1] the test system is p-SLP-76 (Ser376) in Jurkat cells. The experiment in a line: pSLP76 Cellular Assay (AlphaLISA SureFire Ultra p-SLP-76 (Ser376), anti-CD3 activated Jurkat cells). The test is classed as cell-based. The following applies: Homo sapiens; pSLP76 (Ser376) AlphaLISA, anti-CD3 activated Jurkat cells; read-out: Cellular Potency. The procedure, abridged:
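Jurkat cells, serum-starved overnight in Opti-MEM then in HBSS, preincubated 1 h at 37 °C with 22-point 2-fold compound dilutions, then stimulated with anti-CD3 (0.025 mg/ml added solution) for 45 min. Lysate p-SLP-76 (Ser376) measured by AlphaLISA at 570 nm; IC50 from 4-parameter logistic fit.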
Background: Bead proximity is the source of the signal in Alpha formats.

In test [2] the target is HPK1 (Homo sapiens, UniProt Q92918). The experiment in a line: HPK1 Biochemical Assay (ADP-Glo luminescence; low ATP 10 μM or high ATP 200 μM). The note with it: HPK1 ADP-Glo assay. In general terms: ADP-Glo first removes unused ATP, then detects ADP through luciferase.
Where [3] appears, read: low ATP (10 μM ATP, 2 nM HPK1), read-out: Biochemical Potency (low ATP).
Setting [4] is: high ATP (200 μM ATP, 5 nM HPK1), read-out: Biochemical Potency (high ATP).

Sequence of HPK1 (Q92918 whole entry, species assumed): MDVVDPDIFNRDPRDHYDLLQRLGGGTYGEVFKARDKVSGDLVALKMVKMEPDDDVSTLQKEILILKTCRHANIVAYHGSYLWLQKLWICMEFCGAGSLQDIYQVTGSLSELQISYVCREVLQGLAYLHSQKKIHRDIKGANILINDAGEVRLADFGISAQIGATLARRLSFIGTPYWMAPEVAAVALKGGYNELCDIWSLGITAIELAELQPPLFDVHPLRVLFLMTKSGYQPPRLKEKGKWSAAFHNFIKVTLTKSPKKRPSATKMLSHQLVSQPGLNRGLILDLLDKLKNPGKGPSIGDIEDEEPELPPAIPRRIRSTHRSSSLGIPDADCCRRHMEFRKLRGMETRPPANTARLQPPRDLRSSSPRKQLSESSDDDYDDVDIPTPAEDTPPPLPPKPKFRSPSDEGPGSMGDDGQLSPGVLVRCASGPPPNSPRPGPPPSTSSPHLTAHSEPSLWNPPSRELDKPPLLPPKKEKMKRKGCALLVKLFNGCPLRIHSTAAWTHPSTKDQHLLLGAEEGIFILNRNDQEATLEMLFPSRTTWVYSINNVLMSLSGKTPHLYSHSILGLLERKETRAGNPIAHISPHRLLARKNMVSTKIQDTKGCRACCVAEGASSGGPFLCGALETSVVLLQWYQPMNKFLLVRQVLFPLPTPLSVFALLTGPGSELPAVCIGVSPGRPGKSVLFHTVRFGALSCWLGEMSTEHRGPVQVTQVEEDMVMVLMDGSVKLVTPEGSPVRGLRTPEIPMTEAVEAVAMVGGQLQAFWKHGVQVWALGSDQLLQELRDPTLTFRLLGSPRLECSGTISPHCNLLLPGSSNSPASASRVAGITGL

Turning to `Cc1cccnc1-c1nc2cc(Nc3ccc4c(n3)[C@](C)(N)CCC4)ncc2s1` [Example 316, (8R)-8-methyl-N2-[2-(3-methylpyridin-2-yl)-[1,3]thiazolo[5,4-c]pyridin-6-yl]-5,6,7,8-tetrahydroquinoline-2,8-diamine], the IC50 in test [1] and in test [2] (setting [3]) was 1000 to 5000 nM in each case.
In the case of `Cc1cccnc1-c1nc2cc(Nc3ccc4c(n3)[C@H](N)CCC4)ncc2s1` [Example 317, (8R)-N2-[2-(3-methylpyridin-2-yl)-[1,3]thiazolo[5,4-c]pyridin-6-yl]-5,6,7,8-tetrahydroquinoline-2,8-diamine], the values for the IC50 in test [1] and in test [2] (setting [3]) were 1000 to 5000 nM and less than 100 nM, respectively.
Take `Cc1cc(Nc2cc3nc(-c4cncc(-c5ncccc5C)c4)sc3cn2)nc(N2C[C@@H]3C[C@H]2CN3CCO)n1` [Example 318, 2-[(1S,4S)-5-{6-methyl-4-[2-(3-methyl-2,3′-bipyridyl-5′-yl)-3-thia-1,5-diaza-6-indenylamino]-2-pyrimidinyl}-2,5-diazabicyclo[2.2.1]hept-2-yl]ethanol]: the IC50 in test [1] and in test [2] (setting [4]) was less than 100 nM each time.
On to `Cc1cccnc1-c1nc2cc(Nc3nc(N4C[C@@H]5C[C@H]4CN5)ccc3F)ncc2s1` [Example 320], for which the IC50 in test [1] was 100 to 1000 nM; in test [2] (setting [4]) it was less than 100 nM; in test [2] (setting [3]) it was less than 100 nM.
For the molecule `CCN1C[C@@H]2C[C@H]1CN2c1nc(Nc2cc3nc(-c4cccc(C(=O)N5CCC(F)CC5)c4)sc3cn2)ccc1C` [Example 321], the IC50 in test [1] is 100 to 1000 nM; in test [2] (setting [4]), less than 100 nM.
In the case of `CCN1C[C@@H]2C[C@H]1CN2c1nc(Nc2cc3nc(-c4cnn(C)c4)sc3cn2)ccc1F` [Example 322], the IC50 in test [1] was 100 to 1000 nM; in test [2] (setting [4]) it was less than 100 nM.
As for `Cc1cccnc1-c1nc2cc(Nc3cc(C(F)(F)F)cc(N4C[C@@H]5C[C@H]4CN5C)n3)ncc2s1` [Example 323], the IC50 in test [1] is 100 to 1000 nM; in test [2] (setting [4]), less than 100 nM; in test [2] (setting [3]), less than 100 nM.
As for `Cc1cccnc1-c1nc2cc(Nc3ccc4c(n3)CN(C)CC4)ncc2s1` [Example 327], the IC50 in test [1] was 100 to 1000 nM; in test [2] (setting [3]) it was less than 100 nM.
In the case of `CN1CCc2ccc(Nc3cc4nc(-c5c(F)cccc5F)sc4cn3)cc2CC1` [Example 328], the figures for the IC50 in test [1] and in test [2] (setting [3]) were 5000 to 25000 nM and 100 to 1000 nM, respectively.
With `Fc1cccc(F)c1-c1nc2cc(Nc3ccc4c(c3)CC[C@@H](N3C5COCC3C5)CC4)ncc2s1` [Example 329], the IC50 was 5000 to 25000 nM in test [1] and 100 to 1000 nM in test [2] (setting [3]).
On to `Cc1c(N)cncc1-c1nc2cc(Nc3ccc4c(c3)CCC(N3CCCC3)CC4)ncc2s1` (centres unmarked) [Example 330], for which the results for the IC50 in test [1] and in test [2] (setting [3]) were 5000 to 25000 nM and less than 100 nM, respectively.
For the molecule `Cc1cc(Nc2cc3nc(-c4cccc(C(=O)N(C)C)c4)sc3cn2)nc(N2C[C@@H]3C[C@H]2CN3C2CCN(S(C)(=O)=O)CC2)n1` [Example 331], the IC50 lay in the range of 1000 to 5000 nM in test [1] and 100 to 1000 nM in test [2] (setting [4]).
On to `CC(=O)N1CCC(N2C[C@@H]3C[C@H]2CN3c2nc(C)cc(Nc3cc4nc(-c5cccc(C(=O)N(C)C)c5)sc4cn3)n2)CC1` [Example 332], for which the IC50 in test [1] is 1000 to 5000 nM; in test [2] (setting [4]), less than 100 nM.
With `CN1C[C@@H]2C[C@H]1CN2c1cc(Cl)cc(Nc2cc3nc(-c4ccnc(C(C)(C)O)c4)sc3cn2)n1` [Example 333], the IC50 was 100 to 1000 nM in test [1] and less than 100 nM in test [2] (setting [4]).
For `Cc1cccnc1-c1nc2cc(Nc3cc(F)cc(N4C[C@@H]5C[C@H]4CN5)n3)ncc2s1` [Example 334], the IC50 in test [1] and in test [2] (setting [3]) was less than 100 nM each time.
In the case of `CCN1C[C@@H]2C[C@H]1CN2c1nc(C)cc(Nc2cc3nc(-c4cnn(Cc5ccccc5)c4)sc3cn2)n1` [Example 336], the IC50 in test [1] was 100 to 1000 nM; in test [2] (setting [4]) it was less than 100 nM.
For `CCN1C[C@@H]2C[C@H]1CN2c1nc(Nc2cc3nc(-c4ccnc(C(C)(C)O)c4)sc3cn2)cc(C)c1F` [Example 337], the IC50 is 100 to 1000 nM in test [1] and less than 100 nM in test [2] (setting [4]).
In the case of `CCN1C[C@@H]2C[C@H]1CN2c1nc(C)cc(Nc2cc3nc(-c4cccc(N5CCC(F)CC5)c4)sc3cn2)n1` [Example 338], the IC50 in test [1] is 1000 to 5000 nM; in test [2] (setting [4]), less than 100 nM.
Consider `CCN1C[C@@H]2C[C@H]1CN2c1nc(C)cc(Nc2cc3nc(-c4cccc(S(=O)(=O)CC(C)C)c4)sc3cn2)n1` [Example 339], for which the IC50 in test [1] is 100 to 1000 nM; in test [2] (setting [4]), less than 100 nM.
`CCN1C[C@@H]2C[C@H]1CN2c1nc(C)cc(Nc2cc3nc(-c4cccc(S(=O)(=O)C5CC5)c4)sc3cn2)n1` [Example 340]: the IC50 in test [1] and in test [2] (setting [4]) was less than 100 nM each time.
As to `CCN1C[C@@H]2C[C@H]1CN2c1nc(C)cc(Nc2cc3nc(-c4cccc(S(=O)(=O)N5CCCC5)c4)sc3cn2)n1` [Example 341], the IC50 in test [1] is 100 to 1000 nM; in test [2] (setting [4]) it was less than 100 nM.
As to `CCN(CC)C(=O)c1cccc(-c2nc3cc(Nc4cc(C)nc(N5C[C@@H]6C[C@H]5CN6CC)n4)ncc3s2)c1` [Example 342], the IC50 was 100 to 1000 nM in test [1] and less than 100 nM in test [2] (setting [4]).
For `CCN(CC)S(=O)(=O)c1cc(C)cc(-c2nc3cc(Nc4cc(C)nc(N5C[C@@H]6C[C@H]5CN6CCO)n4)ncc3s2)c1` [Example 343], in that order: 1000 to 5000 nM and less than 100 nM.
Consider `Cc1cc(Nc2cc3nc(-c4cccc(S(=O)(=O)N5CCCC5)c4)sc3cn2)nc(N2C[C@@H]3C[C@H]2CN3CCO)n1` [Example 344], for which the IC50 in test [1] and in test [2] (setting [4]) was less than 100 nM each time.
Turning to `Cc1cc(-c2nc3cc(Nc4cc(C)nc(N5C[C@@H]6C[C@H]5CN6CCO)n4)ncc3s2)cc(N2CCCC2=O)c1` [Example 345], the IC50 in test [1] and in test [2] (setting [4]) was less than 100 nM throughout.
For `Cc1cc(C(=O)N(C)C)cc(-c2nc3cc(Nc4cc(C)cc(N5C[C@@H]6C[C@H]5CN6CCO)n4)ncc3s2)c1` [Example 347], the IC50 in test [1] and in test [2] (setting [4]) was less than 100 nM in each case.
With `Cc1cc(Nc2cc3nc(-c4cnn(CC5CC5)c4)sc3cn2)nc(N2C[C@@H]3C[C@H]2CN3CCO)c1` [Example 348], the IC50 in test [1] and in test [2] (setting [4]) was less than 100 nM in each case.
For the molecule `Cc1cc(Nc2cc3nc(-c4cccc(N5CCOCC5)c4)sc3cn2)nc(N2C[C@@H]3C[C@H]2CN3CCO)n1` [Example 349], the IC50 is 100 to 1000 nM in test [1] and less than 100 nM in test [2] (setting [4]).
The matching figures for `Cc1cc(Nc2cc3nc(-c4cccc5c4C(C)(C)C(=O)N5)sc3cn2)nc(N2C[C@@H]3C[C@H]2CN3CCO)n1` [Example 350]: less than 100 nM and less than 100 nM.
On to `COCc1c(-c2nc3cc(Nc4cc(C)nc(N5C[C@@H]6C[C@H]5CN6C)n4)ncc3s2)cnn1C` [Example 351], for which the IC50 in test [1] and in test [2] (setting [4]) was less than 100 nM throughout.
For the molecule `Cc1cc(Nc2cc3nc(-c4cccc(C(=O)N5CCCCC5)c4)sc3cn2)nc(N2C[C@@H]3C[C@H]2CN3CCO)n1` [Example 352], the IC50 in test [1] and in test [2] (setting [4]) was less than 100 nM in each case.
In the case of `Cc1cc(Nc2cc3nc(-c4ccnc(C(C)C)c4)sc3cn2)nc(N2C[C@@H]3C[C@H]2CN3CCO)n1` [Example 354], the IC50 in test [1] and in test [2] (setting [4]) was less than 100 nM throughout.
Take `Cc1cc(Nc2cc3nc(-c4cnn(C(C)(C)C#N)c4)sc3cn2)nc(N2C[C@@H]3C[C@H]2CN3CCO)n1` [Example 355]: the IC50 in test [1] was 100 to 1000 nM; in test [2] (setting [4]), less than 100 nM.
As for `Cc1cc(Nc2cc3nc(-c4cnn(CC5CC5)c4)sc3cn2)nc(N2C[C@@H]3C[C@H]2CN3CC(=O)N(C)C)n1` [Example 356], the figures for the IC50 in test [1] and in test [2] (setting [4]) were 1000 to 5000 nM and 100 to 1000 nM, respectively.
The matching figures for `OCCN1C[C@@H]2C[C@H]1CN2c1nccc(Nc2cc3nc(-c4cnn(CC5CC5)c4)sc3cn2)n1` [Example 357]: 100 to 1000 nM and less than 100 nM.
As for `CCn1cc(-c2nc3cc(Nc4cc(C)nc(N5C[C@@H]6C[C@H]5CN6CCO)n4)ncc3s2)cn1` [Example 358], the IC50 in test [1] and in test [2] (setting [4]) was less than 100 nM each time.
On to `Cc1cc(Nc2cc3nc(-c4ncc(C)o4)sc3cn2)nc(N2C[C@@H]3C[C@H]2CN3CCO)n1` [Example 359], for which the IC50 in test [1] and in test [2] (setting [4]) was less than 100 nM throughout.
For the molecule `Cc1cc(Nc2cc3nc(-c4cccn5nccc45)sc3cn2)nc(N2C[C@@H]3C[C@H]2CN3CCO)n1` [Example 360], the IC50 is 1000 to 5000 nM in test [1] and less than 100 nM in test [2] (setting [4]).
For `Cc1cc(Nc2cc3nc(-c4cncc(C5CC5)c4)sc3cn2)nc(N2C[C@@H]3C[C@H]2CN3CCO)n1` [Example 361], in that order: 100 to 1000 nM and less than 100 nM.
For the molecule `Cc1cc(Nc2cc3nc(-c4cccc(C#Cc5cnn(C)c5)c4)sc3cn2)nc(N2C[C@@H]3C[C@H]2CN3CCO)n1` [Example 362], the results for the IC50 in test [1] and in test [2] (setting [4]) were 1000 to 5000 nM and less than 100 nM, respectively.
On to `Cc1cc(Nc2cc3nc(-c4cnn(CC5CCCCO5)c4)sc3cn2)nc(N2C[C@@H]3C[C@H]2CN3C)n1` (some centres unmarked) [Example 363], for which the IC50 in test [1] was 100 to 1000 nM; in test [2] (setting [4]) it was less than 100 nM.
For the molecule `Cc1cc(Nc2cc3nc(-c4cnn(C5CC5)c4)sc3cn2)nc(N2C[C@@H]3C[C@H]2CN3CC2CC2)n1` [Example 364], the IC50 in test [1] and in test [2] (setting [4]) was less than 100 nM throughout.
